We go through 13 molecules from patent US5368775A, “Corrosion control composition and method for boiler/condensate steam system” (priority 1993, dated 1994).

The conditions of data set [1]: cited from earlier work.
For data set [2] the following is noted: cited from earlier work. The source holds these as a separate data set.
The nature of data set [3]: Additional testing of decomposition products of high molecular weight amines. The class given is physicochemical. The following applies: for formation from DMAPA: additional testing with DMAPA.
The nature of data set [4]: Lab scale test boiler, DMAPA feed, formation of DMA and TMA in feedwater (GC), 1,450 psig. Type of data set: physicochemical. The following applies: for Feedwater composition: feedwater initially 200 ppm DMAPA; for Feedwater conductivity / Feedwater pH: DMAPA feed. The text has this: The following lab scale experiment verified the formation of DMA and TMA.
A research scale, electrically heated test boiler was charged with nitrogen sparged (a mechanical deaeration), demineralized water. The water was supplied by high pressure pump to a D-configuration stainless steel boiler having an internal volume of approximately 5 liters. Two 4000 watt Incoloy 800 resistance heaters produced a steam rate of approximately 17 lbs/hr at a steam pressure of 1,450 psig (correspond to a temperature of 593° F.).
Cycles of concentration were held at approximately 15 by controlling boiler blowdown rate to 1.1 lbs/hr. The saturated steam produced was routed back into the feed tank and mixed with the original feedwater. This follows common industry practice where for economy the maximum amount of condensate is returned to the boiler as feedwater. The feedwater initially contained 200 ppm of DMAPA (Aldrich 99%) and 1.4 ppm hydrazine for deaeration. The feedwater (to which the condensed steam was recycled) was analyzed by gas chromatography and DMA and TMA were quantitated by comparison to external standards.

Data set [5] is described as follows: Table I properties of amines: basicity, distribution ratios, flash point. Type of data set: physicochemical. The text has this:
The preferred relatively high molecular weight amine of the present invention is dimethylaminopropylamine (DMAPA) or N,N-dimethyl-1,3-propanediamine. […] When DMAPA is subjected to common boiler temperatures and pressures of from 100, and preferably over 200, to 1500 psig, the DMAPA will partially decompose. The partial decomposition of DMAPA forms DMA and TMA.

A short description of data set [6]: Lab scale test boiler, DMAPA feed, formation of DMA and TMA in feedwater (GC), 1,450 psig. The class given is physicochemical.
Data set [7] is described as follows: Decomposition of feed amine at boiler conditions from steam concentration (Table III).
Experimental: The effects of common boiler/condensate temperature and pressure on relatively high molecular weight amine was studied. The relatively high molecular weight amines methoxypropylamine (MOPA) and DMAPA were exposed to boiler condition and the steam concentrations of the feed amines measured. From this information the percent decomposition was calculated.
Data set [8] can be described thus: Low pressure (175 psig) package boiler study of DEAE and DMAPA (Table IV). The following applies: for Feedwater concentration / Steam concentration: 175 psig boiler.
Experimental: A study of the effects of a relatively low pressure boiler on DEAE and DMAPA was undertaken. The study was conducted in a 175 psig package boiler. The boiler was operated at 41 cycles with no condensate return so that the amine present in the steam could only come from the feedwater and not from the return of condensate. DEAE and DMAPA were-fed simultaneously at 50 ppm to the feedwater. The boiler was operated overnight to allow the system to equilibrate. […] The concentrations were determined by gas chromatography.
The nature of data set [9]: Research boiler decomposition, 200 to 600 psig (FIG. 1). The following applies: virtually any pressure, especially above about 200 psig. Type of data set: physicochemical. An excerpt: Additional testing in a research boiler was undertaken at pressures of from 200 to 600 psig in 100 psig steps. The high molecular weight amines tested included DMAPA, DEAE and MOPA. The boiler system was operated at 100% condensate return at 15 cycles. Feed tank, steam and blowdown samples were taken at the end of each run and analyzed by gas chromatograph (GC).
A condensate modeling system was used to simulate the boiler runs and estimate. The theoretical steam concentration possible if no amine decomposition occurred. Using the theoretical concentration and the analytical value obtained from GC analysis, the percent decomposition was calculated and the results summarized in FIG. 1.

Like-named read-outs stand apart in the source and are kept apart here.

As to `CCNCC` [DEA, diethylamine], the Distribution ratio in [1] (at 1000 psig) is 28.

Consider `NC1CCCCC1` [cyclohexylamine], for which the Distribution ratio in data set [2] (at atmospheric pressure) is reported as 4.0.

For `CN` [MA, methylamine], the “formation from DMAPA” value in data set [3] is given as “confirmed”.

Regarding `CN(C)C` [TMA, trimethylamine], the Feedwater composition is reported as 9 ppm in data set [4] (22 hrs., sample 12); 16 ppm in data set [4] (46 hrs., sample 13); 25 ppm in data set [4] (79 hrs., sample 14); 32 ppm in [4] (94 hrs., sample 15). The “Flash Pt.” value in [5] is 20 °F. In addition, in data set [6], the “volatility relative to DMAPA” value was “significantly more volatile than DMAPA”. Also, the “times more volatile than cyclohexylamine” value in [1] (at boiler pressures from 100 to 1500 psig) was 2-5 times.

Consider dimethylaminopropanol [DMAP], for which the “formation from DMAPA” value in data set [3] is “confirmed”.

For `CN(C)CCCN` [DMAPA, N,N-dimethyl-1,3-propanediamine], the “Steam concentration” value in data set [7] (200 psig, feedwater 106 ppm) came to 98.4 ppm; in [7] (600 psig, feedwater 106 ppm), 78.8 ppm; in data set [7] (900 psig, feedwater 106 ppm), 68.7 ppm; in data set [7] (1450 psig, feedwater 106 ppm), 37.3 ppm; in data set [8] (time 1), 42 ppm; in data set [8] (time 2), 42 ppm. For the same molecule, the Steam concentration in data set [8] (time 3) amounted to 42 ppm; in data set [8] (time 4), 42 ppm; in data set [8] (time 5), 42 ppm; in data set [8] (time 6) it was 42 ppm; in data set [8] (time 7), 40 ppm. Further, in data set [4] (22 to 94 hrs.), the “concentration of DMA and TMA with time on DMAPA addition” value was “steadily increasing concentration of DMA and TMA with time”. For the same molecule, the Feedwater conductivity in data set [4] (22 hrs.) was 160 uS; in data set [4] (46 hrs.), 195 uS; in data set [4] (79 hrs.), 200 uS; in [4] (94 hrs.), 230 uS. Besides, the “Feedwater pH” value is 10.35 in data set [4] (22 hrs.), 10.40 in [4] (46 hrs.), 10.65 in data set [4] (79 hrs.) and 10.35 in data set [4] (94 hrs.). For the same molecule, in [5], the “Flash Pt.” value is 84 °F. Further, the “Distribution ratio” value in data set [5] (100 psig) was found to be 1.1; in data set [5] (200 psig), 1.9; in data set [5] (600 psig), 2.0. Further, the pKa (usually the pH at which an ionisable group is half protonated) in data set [5] (second of two pKa values, read-out: Basicity (pKa), second value) was found to be 8.2; in data set [5] (single or first pKa, read-out: Basicity (pKa)) it was 10. The Feedwater concentration is on record as 44 ppm in data set [8] (time 1); 44 ppm in [8] (time 2); 45 ppm in data set [8] (time 3); 44 ppm in [8] (time 4); 46 ppm in data set [8] (time 5); 44 ppm in [8] (time 6). The same molecule had a Feedwater concentration in [8] (time 7) of 38 ppm. Also, the “decomposition compared to MOPA” value in data set [9] was “significantly higher than MOPA”.

Consider `COCCCN` [MOPA, methoxypropylamine], for which the “stability at boiler conditions” value in data set [7] (1500 psig) is “essentially stable”. In addition, the “% Decomposition” value was found to be 4.9% in [7] (1500 psig, feedwater 61 ppm) and 24.6% in data set [7] (2500 psig, feedwater 61 ppm). The “Steam concentration” value in data set [7] (1500 psig, feedwater 61 ppm) was determined as 58 ppm; in [7] (2500 psig, feedwater 61 ppm), 46 ppm. Besides, the “decomposition at boiler conditions” value in data set [3] (temperature and pressure common to a typical boiler/condensate steam system) is “do not decompose”.

With `CNC` [DMA, dimethylamine], the Feedwater composition came out at 5 ppm in data set [4] (22 hrs., sample 12); 11 ppm in data set [4] (46 hrs., sample 13); 20 ppm in data set [4] (79 hrs., sample 14); 25 ppm in [4] (94 hrs., sample 15). In addition, the “Flash Pt.” value in data set [5] stood at 60 °F. For the same molecule, the figures for the “Distribution ratio” value in [5] (100 psig), in [5] (200 psig) and in data set [5] (600 psig) were 2.4, 2.1 and 3.3, respectively. Besides, the “Basicity (pKa)” value in data set [5] (single or first pKa) was found to be 10.8. In addition, the “volatility relative to DMAPA” value in [6] is recorded as “significantly more volatile than DMAPA”. Further, the pKa in data set [1] was 10.77. In data set [1] (pressure not stated), the “Distribution ratio (DR)” value is on record as 2-5.

In the case of `O=C=O` [carbon dioxide], the Distribution ratio in data set [2] (depending upon temperature) was ≥ 100.

As to `N` [ammonia], in data set [2] (at atmospheric pressure), the Distribution ratio is 10.0.

With `CCN(CC)CCO` [DEAE, diethylaminoethanol], the “hydrothermal stability” value in data set [8] (lower saturation pressures of this test (175 psig boiler)) is reported as “hydrothermally stable”.

Regarding `CC(O)CN(C)C` (centres unmarked) [dimethylisopropanol amine], in data set [2] (at atmospheric pressure), the Distribution ratio was 1.7.

On to `C1COCCN1` [Morpholine], for which, in data set [2] (at atmospheric pressure), the Distribution ratio is 0.4.
